Assay [1] deals with human full length PIK3CA wild-type (p110α/p85α) (Homo sapiens (Human), UniProt P42336). The assay is described as follows: PI3K-alpha kinase (PIK3CA) activity, wild-type, Transcreener ADP2 FI assay. The note with it: PI3K-α (PIK3CA) biochemical. As to the method:
(§1) PI3K-Alpha Kinase (PIK3CA) Activity, Wild-Type and H1047R Mutant and Determining IC50 Values for Inhibitors
(§2) Recombinant, catalytically active human full length PIK3KA Wild-type and H1047R mutant were purchased as 1:1 complex of N-terminal 6× his tagged p110 ? (catalytic) and untagged p85 ? (regulatory subunit) from EMD Millipore Sigma (cat. no. 14-602M and 14-792M, respectively). The enzyme stocks were diluted to 5× stocks in buffer (20 mM HEPES pH 7.4, 100 mM NaCl, 0.5 mM EGTA, 0.01% triton-x-100) just before use. PIP2diC8 (Avanti Polar Lipids Inc., cat. no. 850185) or phosphoinositol-4,5-bisphosphate with phosphoserine (PIP2:PS) membrane (Thermo Fisher Scientific, cat. no. PV5100) was used as lipid substrates. PIP2diC8 lyophilized powder and PIP2:PS (1:19) membrane stock (1 mM in PIP2) were separately dissolved in milliQ water to a concentration of 250 uM and stored in −20° C. 10 mM stocks of compounds were serially diluted (3×) in neat DMSO and stored in a dessicator at room temperature. 5× compound stocks in 25% DMSO were prepared fresh from neat DMSO stocks.
(§3) Wild-type (WT) and H1047R mutant protein, along with buffer components (except ATP), were incubated with or without compound at 27° C. for 1 h. After incubation, the reaction was initiated by the addition of 5 uL of 125 uM ATP. A typical assay mixture (25 uL) comprised 40 mM HEPES buffer, pH 7.4, 25 mM MgCl2, 0.01% v/v triton-X-100, 5% v/v DMSO, 20 mM NaCl, 1-5 nM wt or H1047R, 25 uM ATP, and 50 uM PIP2diC8 or PIP2 in membrane. The reaction was allowed to proceed until about […] (2.5 uM ADP) after which time, 10 uL of reaction mixture was quenched with 25 uL of transcreener reagent (Transcreener ADP2 FI assay kit, BellBrook labs, Cat. No. 3013). The contents were incubated at rt for 1 h and fluorescence was measured using a plate reader (Paradigm, Molecular Devices). The same assay was also run at pH 6.0 or 6.4 using MOPS buffer (Fisher BioReagents, CAS 1132-61-2). A calibration curve was generated under identical buffer conditions with varying ADP amounts. Using that, the observed fluorescence was converted to uM ADP. A plot between [ADP] and log[I] yielded the dose-response curves that enabled the calculation of IC50s.

Assay [2] addresses human full length PIK3CA H1047R mutant (p110α/p85α) (Homo sapiens (Human), UniProt P42336, H1047R). The assay is described as follows: PI3K-alpha kinase (PIK3CA) activity, H1047R mutant, Transcreener ADP2 FI assay. To be noted: PI3K-α (PIK3CA) biochemical. As to the method:
as §1, §2, §3

Sequence of human full length PIK3CA wild-type (p110α/p85α) (P42336 whole entry): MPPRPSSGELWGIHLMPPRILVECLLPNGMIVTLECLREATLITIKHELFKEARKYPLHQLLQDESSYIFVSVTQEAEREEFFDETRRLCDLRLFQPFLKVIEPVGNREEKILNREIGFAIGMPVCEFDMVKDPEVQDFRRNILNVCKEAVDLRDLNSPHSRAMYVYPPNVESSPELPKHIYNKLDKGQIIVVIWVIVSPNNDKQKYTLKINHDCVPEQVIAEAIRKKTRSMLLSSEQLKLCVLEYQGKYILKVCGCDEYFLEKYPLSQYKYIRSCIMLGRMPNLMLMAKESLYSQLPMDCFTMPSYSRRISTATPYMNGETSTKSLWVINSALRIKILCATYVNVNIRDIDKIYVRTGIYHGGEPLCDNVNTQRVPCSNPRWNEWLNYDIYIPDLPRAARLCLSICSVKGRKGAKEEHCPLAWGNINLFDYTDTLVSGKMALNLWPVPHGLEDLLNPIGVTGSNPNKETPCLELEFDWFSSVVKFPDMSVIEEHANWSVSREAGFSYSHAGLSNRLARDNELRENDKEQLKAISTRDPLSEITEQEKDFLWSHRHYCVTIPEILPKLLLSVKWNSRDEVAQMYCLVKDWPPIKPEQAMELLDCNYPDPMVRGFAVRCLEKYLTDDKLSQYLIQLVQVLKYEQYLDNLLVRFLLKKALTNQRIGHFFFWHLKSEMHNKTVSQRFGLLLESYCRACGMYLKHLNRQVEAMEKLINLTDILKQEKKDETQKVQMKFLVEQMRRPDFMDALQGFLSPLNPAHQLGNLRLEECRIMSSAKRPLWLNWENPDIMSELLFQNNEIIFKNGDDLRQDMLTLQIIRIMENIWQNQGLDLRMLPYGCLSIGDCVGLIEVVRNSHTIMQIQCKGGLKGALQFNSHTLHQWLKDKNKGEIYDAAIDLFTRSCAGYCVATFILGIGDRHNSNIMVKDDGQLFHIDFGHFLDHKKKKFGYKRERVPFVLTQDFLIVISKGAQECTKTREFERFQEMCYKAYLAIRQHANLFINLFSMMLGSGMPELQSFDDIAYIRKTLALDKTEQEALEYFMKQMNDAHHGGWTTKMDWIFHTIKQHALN
Sequence of human full length PIK3CA wild-type (p110α/p85α) (P27986 whole entry partner): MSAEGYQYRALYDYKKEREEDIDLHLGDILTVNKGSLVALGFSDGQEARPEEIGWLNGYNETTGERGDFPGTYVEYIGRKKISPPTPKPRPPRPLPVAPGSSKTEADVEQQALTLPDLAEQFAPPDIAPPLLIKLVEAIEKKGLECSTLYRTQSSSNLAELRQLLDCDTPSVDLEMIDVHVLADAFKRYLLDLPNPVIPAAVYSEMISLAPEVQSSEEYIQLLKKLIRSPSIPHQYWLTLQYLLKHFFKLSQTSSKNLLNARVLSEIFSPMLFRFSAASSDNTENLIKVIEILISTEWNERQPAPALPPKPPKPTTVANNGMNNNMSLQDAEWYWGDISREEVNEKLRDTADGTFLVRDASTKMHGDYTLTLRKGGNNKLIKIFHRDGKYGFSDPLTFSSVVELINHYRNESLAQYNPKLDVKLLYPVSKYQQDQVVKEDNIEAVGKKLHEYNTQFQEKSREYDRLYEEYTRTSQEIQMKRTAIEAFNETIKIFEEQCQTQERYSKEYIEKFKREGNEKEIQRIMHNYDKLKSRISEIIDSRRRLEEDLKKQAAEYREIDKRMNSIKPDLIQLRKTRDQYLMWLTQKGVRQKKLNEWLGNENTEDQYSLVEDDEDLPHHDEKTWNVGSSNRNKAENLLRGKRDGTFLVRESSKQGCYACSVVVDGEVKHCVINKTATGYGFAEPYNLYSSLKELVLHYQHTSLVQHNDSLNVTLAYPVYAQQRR
Sequence of human full length PIK3CA H1047R mutant (p110α/p85α) (P42336 whole entry H1047R): as the sequence (P42336 whole entry) above, with H1047R counted along it
Sequence of human full length PIK3CA H1047R mutant (p110α/p85α) (P27986 whole entry partner): as the sequence (P27986 whole entry partner) above

Regarding `COc1cc(C(=O)O)c(NC(C)c2cc(C)cc3c(=O)cc(N4CCC(C)(C)CC4)oc23)cc1F` (stereo not shown) [Example 1, 2-[1-[2-(4,4-Dimethyl-1-piperidyl)-6-methyl-4-oxo-chromen-8-yl]ethylamino]-4-fluoro-5-methoxy-benzoic acid], the concentration for half-maximal inhibition (IC50) in assay [1] is greater than 10000 nM.
On to `CONC(=O)c1ccccc1NC(C)c1cc(C)cc2c(=O)cc(N3CCC(C)(C)CC3)oc12` (stereo not shown) [Example 19, 2-[1-[2-(4,4-Dimethyl-1-piperidyl)-6-methyl-4-oxo-chromen-8-yl]ethylamino]-N-methoxy-benzamide], for which the IC50 in assay [2] is less than 500 nM.
Take `Cc1cc(C(C)Nc2ccccc2-c2nnn[nH]2)c2oc(N3CCC(C)(C)CC3)cc(=O)c2c1` (stereo not shown) [Example 20, 2-(4,4-Dimethyl-1-piperidyl)-6-methyl-8-[1-[2-(1H-tetrazol-5-yl)anilino]ethyl]chromen-4-one]: the IC50 in assay [2] is less than 500 nM.
`Cc1cc(C(C)Nc2ccsc2C(=O)O)c2oc(N3CCC(C)(C)CC3)cc(=O)c2c1` (stereo not shown) [Example 39, 3-[1-[2-(4,4-Dimethyl-1-piperidyl)-6-methyl-4-oxo-chromen-8-yl]ethylamino]thiophene-2-carboxylic acid] came in with an IC50 in assay [1] greater than 10000 nM.
`CCc1c(N2CCC(C)(C)CC2)oc2c(C(C)Nc3ccccc3C(=O)O)cc(C)cc2c1=O` (stereo not shown) [Example 55, 2-[1-[2-(4,4-dimethyl-1-piperidyl)-3-ethyl-6-methyl-4-oxo-chromen-8-yl]ethylamino]benzoic acid] registered an IC50 in assay [2] of less than 500 nM.
In the case of `Cc1cc(C(C)Nc2ccccc2C(=O)O)c2oc(N3CCCC4(CNC(=O)C4)C3)cc(=O)c2c1` (stereo not shown) [Example 61, 2-[1-[6-Methyl-4-oxo-2-(3-oxo-2,7-diazaspiro[4.5]decan-7-yl)chromen-8-yl]ethylamino]benzoic acid], the IC50 in assay [1] is greater than 10000 nM.
In assay [2], `Cc1cc(C(C)Nc2ccccc2C(=O)O)c2oc(N3CCCC(C)(C)C3)cc(=O)c2c1` (stereo not shown) [Example 65, 2-[1-[2-(3,3-Dimethyl-1-piperidyl)-6-methyl-4-oxo-chromen-8-yl]ethylamino]benzoic acid] showed an IC50 of less than 500 nM.
As for `Cc1cc(C(C)Nc2ccccc2C(=O)O)c2oc(N3CC(N(C)C)C3)cc(=O)c2c1` (stereo not shown) [Example 68, 2-[1-[2-[3-(Dimethylamino)azetidin-1-yl]-6-methyl-4-oxo-chromen-8-yl]ethylamino]benzoic acid], the half-inhibitory concentration (IC50) in assay [1] is greater than 10000 nM.
`Cc1cc(C(C)Nc2ccccc2C(=O)O)c2oc(N3CC4CCC(C3)O4)cc(=O)c2c1` (stereo not shown) [Example 82, 2-[1-[6-Methyl-2-(8-oxa-3-azabicyclo[3.2.1]octan-3-yl)-4-oxo-chromen-8-yl]ethylamino]benzoic acid] had an IC50 in assay [1] greater than 10000 nM.
In assay [2], `Cc1cc(C(C)Nc2ccccc2C(=O)O)c2oc(N3CC4(CCCCC4)C3)cc(=O)c2c1` (stereo not shown) [Example 88, 2-[1-[2-(2-Azaspiro[3.5]nonan-2-yl)-6-methyl-4-oxo-chromen-8-yl]ethylamino]benzoic acid] gave an IC50 of less than 500 nM.
For the compound `Cc1cc(C(C)Nc2ccccc2C(=O)O)c2oc(N3Cc4ccc(F)cc4C3)cc(=O)c2c1` (stereo not shown) [Example 105, 2-[1-[2-(5-Fluoroisoindolin-2-yl)-6-methyl-4-oxo-chromen-8-yl]ethylamino]benzoic acid], the 50% inhibitory concentration (IC50) in assay [2] is less than 500 nM.
For `Cc1cc(C(C)Nc2ccccc2C(=O)O)c2oc(N3CCS(=O)(=O)CC3)cc(=O)c2c1` (stereo not shown) [Example 117, 2-[1-[2-(1,1-Dioxo-1,4-thiazinan-4-yl)-6-methyl-4-oxo-chromen-8-yl]ethylamino]benzoic acid], the IC50 in assay [1] is greater than 10000 nM.
Compound `CCNc1cc(=O)c2cc(C)cc(C(C)Nc3ccccc3C(=O)O)c2o1` (stereo not shown) [Example 126, 2-[1-[2-(Ethylamino)-6-methyl-4-oxo-chromen-8-yl]ethylamino]benzoic acid] came in with an IC50 in assay [1] greater than 10000 nM.
For the compound `Cc1cc(C(C)Nc2ccccc2C(=O)O)c2oc(N3CCn4cnnc4C3)cc(=O)c2c1` (stereo not shown) [Example 163, 2-[1-[2-(6,8-Dihydro-5H-[1,2,4]triazolo[4,3-a]pyrazin-7-yl)-6-methyl-4-oxo-chromen-8-yl]ethylamino]benzoic acid], the 50% inhibitory concentration (IC50) in assay [1] was greater than 10000 nM.
`Cc1cc(C(C)Nc2ccccc2C(=O)O)c2oc(N3CCn4cccc4C3)cc(=O)c2c1` (stereo not shown) [Example 171, 2-[1-[2-(3,4-Dihydro-1H-pyrrolo[1,2-a]pyrazin-2-yl)-6-methyl-4-oxo-chromen-8-yl]ethylamino]benzoic acid]: in assay [2], the half-inhibitory concentration (IC50) is less than 500 nM.
Turning to `Cc1cc(C(C)Nc2ccccc2C(=O)O)c2oc(N3CC4CC(C4)C3)cc(=O)c2c1` (stereo not shown) [Example 177, 2-[1-[2-(3-Azabicyclo[3.1.1]heptan-3-yl)-6-methyl-4-oxo-chromen-8-yl]ethylamino]benzoic acid 2,2,2-trifluoroacetic acid], the IC50 in assay [2] was less than 500 nM.
Compound `Cc1cc(C(C)Nc2ccccc2C(=O)O)c2oc(N3CC(C(C)(F)F)C3)cc(=O)c2c1` (stereo not drawn) [Example 189, 2-[1-[2-[3-(1,1-Difluoroethyl)azetidin-l-yl]-6-methyl-4-oxo-chromen-8-yl]ethylamino]benzoic acid 2,2,2-trifluoroacetic acid] came in with an IC50 in assay [2] of less than 500 nM.
Turning to `Cc1cc(C(C)Nc2ccccc2C(=O)O)c2oc(N3CCc4ccccc4C3)cc(=O)c2c1` (stereo not shown) [Example 233, 2-[1-[2-(3,4-Dihydro-1H-isoquinolin-2-yl)-6-methyl-4-oxo-chromen-8-yl]ethylamino]benzoic acid], the IC50 in assay [2] is less than 500 nM.
In the case of `Cc1cc(C(C)Nc2sc(Cl)nc2C(=O)O)c2oc(N3Cc4ccccc4C3)cc(=O)c2c1` (stereo not shown) [Example 245, 2-Chloro-5-[1-(2-isoindolin-2-yl-6-methyl-4-oxo-chromen-8-yl)ethylamino]thiazole-4-carboxylic acid 2,2,2-trifluoroacetic acid], the concentration for half-maximal inhibition (IC50) in assay [2] was less than 500 nM.
Turning to `Cc1cc([C@@H](C)Nc2ccccc2C(=O)O)c2oc(N3CCC(C#N)(c4ccccc4)CC3)c(C)c(=O)c2c1` [Example 288, 2-[[(1R)-1-[2-(4-Cyano-4-phenyl-1-piperidyl)-3,6-dimethyl-4-oxo-chromen-8-yl]ethyl]amino]benzoic acid], in assay [2], the 50% inhibitory concentration (IC50) was less than 500 nM.
With `Cc1cc([C@@H](C)Nc2ccccc2C(=O)O)c2oc(N3CC4(CCC4(F)F)C3)c(C)c(=O)c2c1` [Example 289, 2-[[(1R)-1-[2-(7,7-Difluoro-2-azaspiro[3.3]heptan-2-yl)-3,6-dimethyl-4-oxo-chromen-8-yl]ethyl]amino]benzoic acid], the IC50 in assay [2] is less than 500 nM.
For `Cc1cc(C(C)Nc2ccc(Cl)nc2C(=O)O)c2oc(N3Cc4ccc(F)cc4C3)cc(=O)c2c1` (stereo not shown) [Example 297, 6-Chloro-3-[1-[2-(5-fluoroisoindolin-2-yl)-6-methyl-4-oxo-chromen-8-yl]ethylamino]pyridine-2-carboxylic acid], the IC50 in assay [2] was less than 500 nM.
For the compound `Cc1cc(C(C)Nc2ccc(Cl)nc2C(=O)O)c2oc(N3Cc4ccc5c(c4C3)OCO5)cc(=O)c2c1` (stereo not shown) [Example 299, 6-Chloro-3-[1-[2-(6,8-dihydro-[1,3]dioxolo[4,5-e]isoindol-7-yl)-6-methyl-4-oxo-chromen-8-yl]ethylamino]pyridine-2-carboxylic acid], in assay [2], the 50% inhibitory concentration (IC50) is less than 500 nM.
Compound `Cc1cc(C(C)Nc2ccc(Cl)nc2C(=O)O)c2oc(N3CCC4(CC3)CC4)c(C)c(=O)c2c1` (stereo not shown) [Example 302, 3-[1-[2-(6-Azaspiro[2.5]octan-6-yl)-3,6-dimethyl-4-oxo-chromen-8-yl]ethylamino]-6-chloro-pyridine-2-carboxylic acid] had an IC50 in assay [2] of less than 500 nM.
On the same count and under the same terms, as for `Cc1cc([C@@H](C)Nc2ccccc2C(=O)O)c2oc(N3CCCCC3)cc(=O)c2c1` [Example 376, 2-[[(1R)-1-[6-Methyl-4-oxo-2-(1-piperidyl)chromen-8-yl]ethyl]amino]benzoic acid], the figure is less than 500 nM.
Compound `CC(Nc1ccccc1C(=O)O)c1cc(C(F)(F)F)cc2c(=O)cc(N3CCC(F)(F)CC3)oc12` (stereo not shown) [Example 396, 2-[1-[2-(4,4-Difluoro-1-piperidyl)-4-oxo-6-(trifluoromethyl)chromen-8-yl]ethylamino]benzoic acid 2,2,2-trifluoroacetic acid] registered an IC50 in assay [2] of less than 500 nM.
`CC(Nc1ccccc1C(=O)O)c1cc(F)cc2c(=O)cc(N3CCC4(CC3)CC4)oc12` (stereo not shown) [Example 398, 2-[1-[2-(6-Azaspiro[2.5]octan-6-yl)-6-fluoro-4-oxo-chromen-8-yl]ethylamino]benzoic acid 2,2,2-trifluoroacetic acid]: the concentration for half-maximal inhibition (IC50) in assay [2] was less than 500 nM.
In assay [2], `CC(Nc1ccccc1C(=O)O)c1cc(F)cc2c(=O)cc(N3CCC(F)(F)CC3)oc12` (stereo not shown) [Example 399] gave an IC50 of less than 500 nM.

As usually defined, the IC50 is the concentration that inhibits the measured activity by half. The low end stands for greater potency, the high end for weaker potency.

These data come from patent US20230286960A1, “ALLOSTERIC CHROMENONE INHIBITORS OF PHOSPHOINOSITIDE 3-KINASE (PI3K) FOR THE TREATMENT OF DISEASE” (Petra Pharma Corporation, priority 2020, published 2023).
